Source: patent publication US20240279218A1 (Hoffmann-La Roche Inc., priority 2016, published 2024)

Legend:
h-GABA-A α5β3γ2 [1] = molecular target: T1, h-GABA-A α5β3γ2 (Homo sapiens (Human), UniProt P18507+P31644); experiment: [3H]flumazenil competition binding assay, membranes of HEK293 cells expressing human GABAA receptors; conditions: displacement of [3H]flumazenil 0.5 nM, HEK293 cells expressing human receptors, mean of two determinations; read-out: Ki h-GABA-A α5β3γ2
Method in brief: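 Membranes were prepared from HEK293 cells with transient human α5β3γ2 expression and assayed in Krebs-tris, pH 7.5. Bound radioactivity measured on filters by liquid scintillation.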

h-GABA-A α5β3γ2 [2] = molecular target: T1, h-GABA-A α5β3γ2; experiment: Two-electrode voltage clamp electrophysiology in Xenopus oocytes expressing GABAA receptors, modulation of GABA EC20 current; format: cell-based; conditions: Xenopus oocytes; for Efficacy (GABA) %: % modulation of GABA EC20 = 100*(Fold increase−1); for Fold increase h-GABA-A α5β3γ2 oocyte: GABA EC20, test compound at approx. 30 fold its Ki
Method in brief: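 Values are % modulation of an EC20 GABA response, derived point by point from the ratio of compound-exposed versus control current traces (extremum taken, 100×(fold−1)). Recordings used oocytes injected with human α5, β3, γ2 mRNA, clamped at −80 mV at room temperature, at least 3 oocytes each.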

Ki (h-GABA-A α5β3γ2 [1])	Efficacy (GABA) % (h-GABA-A α5β3γ2 [2])	Fold increase h-GABA-A α5β3γ2 oocyte (h-GABA-A α5β3γ2 [2])	SMILES
20.7 nM	21%	1.21	Cc1ccc(-c2noc(C)c2COc2cnc(C(=O)N[C@H]3CC[C@@H](C(F)(F)F)CC3)cn2)cn1 [Example 102, 5-((5-methyl-3-(6-methylpyridin-3-yl)isoxazol-4-yl)methoxy)-N-(cis-4-(trifluoromethyl)cyclohexyl)pyrazine-2-carboxamide]
79 nM	81%	1.81	Cc1ccc(-c2noc(C)c2COc2ccc(C(=O)N[C@H]3CCCOC3)nn2)cn1 [Example 103, (S)-6-((5-methyl-3-(6-methylpyridin-3-yl)isoxazol-4-yl)methoxy)-N-(tetrahydropyran-3-yl)pyridazine-3-carboxamide]
66.3 nM	43%	1.43	Cc1ccc(-c2noc(C)c2COc2cnc(C(=O)N[C@H]3CC[C@@](C)(O)CC3)cn2)cn1 [Example 104, N-(cis-4-hydroxy-4-methylcyclohexyl)-5-((5-methyl-3-(6-methylpyridin-3-yl)isoxazol-4-yl)methoxy)pyrazine-2-carboxamide]
22.7 nM	101%	2.01	Cc1ccc(-c2noc(C)c2COc2cnc(C(=O)N[C@H]3CC[C@](C)(O)CC3)cn2)cn1 [Example 105, N-(trans-4-hydroxy-4-methylcyclohexyl)-5-((5-methyl-3-(6-methylpyridin-3-yl)isoxazol-4-yl)methoxy)pyrazine-2-carboxamide]
60.3 nM	64%	1.64	Cc1ccc(-c2noc(C)c2COc2ccc(C(=O)NC3(C)CCOCC3)cn2)cn1 [Example 106, 6-((5-methyl-3-(6-methylpyridin-3-yl)isoxazol-4-yl)methoxy)-N-(4-methyltetrahydropyran-4-yl)nicotinamide]
9.6 nM	69%	1.69	Cc1ccc(-c2noc(C)c2COc2cc3c(cn2)C(=O)N(C2CCSCC2)C3)cn1 [Example 107, 6-((5-methyl-3-(6-methylpyridin-3-yl)isoxazol-4-yl)methoxy)-2-(tetrahydro-2H-thiopyran-4-yl)-1H-pyrrolo[3,4-c]pyridin-3(2H)-one]
0.4 nM	20%	1.2	Cc1ccc(-c2noc(C)c2COc2ccc(C(=O)NC3CCOCC3)cn2)nn1 [Example 108, 6-((5-methyl-3-(6-methylpyridazin-3-yl)isoxazol-4-yl)methoxy)-N-tetrahydropyran-4-yl-pyridine-3-carboxamide]
0.8 nM	42%	1.42	CCC[C@@H](CO)NC(=O)c1ccc(OCc2c(-c3ccc(C)nn3)noc2C)nc1 [Example 109, N-((1S)-1-(hydroxymethyl)butyl)-6-((5-methyl-3-(6-methylpyridazin-3-yl)isoxazol-4-yl)methoxy)pyridine-3-carboxamide]
15.5 nM	65%	1.65	Cc1ccc(-c2noc(C)c2COc2ccc(C(=O)NC3(C)CCSCC3)nn2)cn1 [Example 110, 6-((5-methyl-3-(6-methylpyridin-3-yl)isoxazol-4-yl)methoxy)-N-(4-methyltetrahydrothiopyran-4-yl)pyridazine-3-carboxamide]
4.6 nM	89%	1.89	Cc1ccc(-c2noc(C)c2COc2ccc(C(=O)NC3(C)CCS(=O)(=O)CC3)nn2)cn1 [Example 111, N-(4-methyl-1,1-dioxidotetrahydro-2H-thiopyran-4-yl)-6-((5-methyl-3-(6-methylpyridin-3-yl)isoxazol-4-yl)methoxy)pyridazine-3-carboxamide]
6.5 nM	43%	1.43	Cc1ccc(-c2noc(C)c2COc2ccc(C(=O)N3CC4(C3)CS(=O)(=O)C4)nn2)cn1 [Example 112, (2,2-dioxido-2-thia-6-azaspiro[3.3]heptan-6-yl)(6-((5-methyl-3-(6-methylpyridin-3-yl)isoxazol-4-yl)methoxy)pyridazin-3-yl)methanone]
33.8 nM	28%	1.28	Cc1ccc(-c2noc(C)c2COc2cnc(C(=O)N3CC4(C3)CS(=O)(=O)C4)cn2)cn1 [Example 113, (2,2-dioxido-2-thia-6-azaspiro[3.3]heptan-6-yl)(5-((5-methyl-3-(6-methylpyridin-3-yl)isoxazol-4-yl)methoxy)pyrazin-2-yl)methanone]
28.1 nM	74%	1.74	Cc1ccc(-c2noc(C)c2COc2ccc(C(=O)NC3(C)CCCC3)nn2)cn1 [Example 114, 6-((5-methyl-3-(6-methylpyridin-3-yl)isoxazol-4-yl)methoxy)-N-(1-methylcyclopentyl)pyridazine-3-carboxamide]
51.6 nM	139%	2.39	Cc1ccc(-c2noc(C)c2COc2cnc(C(=O)NCCCC(F)(F)F)cn2)cn1 [Example 115, 5-((5-methyl-3-(6-methylpyridin-3-yl)isoxazol-4-yl)methoxy)-N-(4,4,4-trifluorobutyl)pyrazine-2-carboxamide]
4.9 nM	59%	1.59	Cc1ccc(-c2noc(C)c2COc2ccc(C(=O)NC3CN(C(C)C)C3)nn2)cn1 [Example 116, N-(1-isopropylazetidin-3-yl)-6-((5-methyl-3-(6-methylpyridin-3-yl)isoxazol-4-yl)methoxy)pyridazine-3-carboxamide]
15.6 nM	99%	1.99	Cc1ccc(-c2noc(C)c2COc2cc3c(cn2)C(=O)N(C2CC4(COC4)C2)C3)cn1 [Example 117, 6-((5-methyl-3-(6-methylpyridin-3-yl)isoxazol-4-yl)methoxy)-2-(2-oxaspiro[3.3]heptan-6-yl)-1H-pyrrolo[3,4-c]pyridin-3(2H)-one]
12.3 nM	88%	1.88	Cc1ccc(-c2noc(C)c2COc2ccc(C(=O)NC3(C)CCC3)nn2)cn1 [Example 118, 6-((5-methyl-3-(6-methylpyridin-3-yl)isoxazol-4-yl)methoxy)-N-(1-methylcyclobutyl)pyridazine-3-carboxamide]
31 nM	102%	2.02	CCc1onc(-c2ccc(C)nc2)c1COc1ccc(C(=O)NC2CCOCC2)cn1 [Example 119, 6-((5-ethyl-3-(6-methylpyridin-3-yl)isoxazol-4-yl)methoxy)-N-tetrahydropyran-4-yl-pyridine-3-carboxamide]
52.1 nM	160%	2.6	CCc1onc(-c2ccc(C)nc2)c1COc1ccc(C(=O)NC2CCS(=O)(=O)CC2)cn1 [Example 120, N-(1,1-dioxidotetrahydro-2H-thiopyran-4-yl)-6-((5-ethyl-3-(6-methylpyridin-3-yl)isoxazol-4-yl)methoxy)pyridine-3-carboxamide]
40.3 nM	109%	2.09	CCc1onc(-c2ccc(C)nc2)c1COc1ccc(C(=O)NC2CCOCC2)nn1 [Example 121, 6-((5-ethyl-3-(6-methylpyridin-3-yl)isoxazol-4-yl)methoxy)-N-(tetrahydropyran-4-yl)pyridazine-3-carboxamide]
26.4 nM	126%	2.26	CCc1onc(-c2ccc(C)nc2)c1COc1ccc(C(=O)NC2(C)COC2)nn1 [Example 122, 6-((5-ethyl-3-(6-methylpyridin-3-yl)isoxazol-4-yl)methoxy)-N-(3-methyloxetan-3-yl)pyridazine-3-carboxamide]
22.1 nM	106%	2.06	CCc1onc(-c2ccc(C)nc2)c1COc1ccc(C(=O)NC2CC2)nn1 [Example 123, N-cyclopropyl-6-((5-ethyl-3-(6-methylpyridin-3-yl)isoxazol-4-yl)methoxy)pyridazine-3-carboxamide]
36.6 nM	47%	1.47	CCC[C@H](CO)NC(=O)c1ccc(OCc2c(-c3ccc(C)nc3)noc2C)nc1 [Example 124, (R)—N-(1-hydroxypentan-2-yl)-6-((5-methyl-3-(6-methylpyridin-3-yl)isoxazol-4-yl)methoxy)pyridine-3-carboxamide]
59 nM	142%	2.42	CCC[C@@H](CO)NC(=O)c1ccc(OCc2c(-c3ccc(C)nc3)noc2C(F)F)nc1 [Example 125, 6-((5-(difluoromethyl)-3-(6-methyl-3-pyridyl)isoxazol-4-yl)methoxy)-N-((1S)-1-(hydroxymethyl)butyl)pyridine-3-carboxamide]
49.8 nM	49%	1.49	Cc1ccc(-c2noc(C(F)F)c2COc2ccc(C(=O)NC3CCOCC3)cn2)cn1 [Example 126, 6-((5-(difluoromethyl)-3-(6-methyl-3-pyridyl)isoxazol-4-yl)methoxy)-N-tetrahydropyran-4-yl-pyridine-3-carboxamide]
